Source: ChEMBL document CHEMBL5537136 (J Med Chem, 2024)
Calls of active or inactive are those of the source. No cut-off for these calls is given here.

Columns and labels:
[1] = target: T1, Protein mono-ADP-ribosyltransferase TIPARP (Homo sapiens) (UniProt Q7Z3E1); assay: Inhibition of PARP7 (unknown origin) at 100 nM measured after 1 hr incubation by microplate reader assay relative to control
T1 sequence (whole entry): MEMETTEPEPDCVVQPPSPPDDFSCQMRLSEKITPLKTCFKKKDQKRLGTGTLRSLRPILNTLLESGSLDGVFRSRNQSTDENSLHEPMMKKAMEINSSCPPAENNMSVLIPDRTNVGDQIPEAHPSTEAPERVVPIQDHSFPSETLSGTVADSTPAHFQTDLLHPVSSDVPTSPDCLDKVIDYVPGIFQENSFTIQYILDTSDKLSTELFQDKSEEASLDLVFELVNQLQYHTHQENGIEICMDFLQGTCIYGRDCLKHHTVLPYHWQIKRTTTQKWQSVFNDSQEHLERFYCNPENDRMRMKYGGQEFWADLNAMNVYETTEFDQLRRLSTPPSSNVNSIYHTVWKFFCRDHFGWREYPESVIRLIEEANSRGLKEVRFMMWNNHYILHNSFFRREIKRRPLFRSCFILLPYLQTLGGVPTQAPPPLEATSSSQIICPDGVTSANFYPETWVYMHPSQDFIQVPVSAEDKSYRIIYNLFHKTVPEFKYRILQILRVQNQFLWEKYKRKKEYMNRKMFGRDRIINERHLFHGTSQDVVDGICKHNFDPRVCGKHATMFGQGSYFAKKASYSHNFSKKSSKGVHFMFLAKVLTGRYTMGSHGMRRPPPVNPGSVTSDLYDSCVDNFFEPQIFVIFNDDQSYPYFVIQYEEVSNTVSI

[2] = target: T2, Protein mono-ADP-ribosyltransferase TIPARP (Homo sapiens, UniProt Q7Z3E1); assay: Inhibition of PARP7 (unknown origin) measured after 1 hr incubation by microplate reader assay
T2 sequence (Q7Z3E1 whole entry): T1 sequence (whole entry)

[3] = target: Poly [ADP-ribose] polymerase 1 (Homo sapiens, UniProt P09874); assay: Inhibition of PARP1 (unknown origin) measured after 1 hr incubation by microplate reader assay
Chain of Poly [ADP-ribose] polymerase 1 (P09874 whole entry): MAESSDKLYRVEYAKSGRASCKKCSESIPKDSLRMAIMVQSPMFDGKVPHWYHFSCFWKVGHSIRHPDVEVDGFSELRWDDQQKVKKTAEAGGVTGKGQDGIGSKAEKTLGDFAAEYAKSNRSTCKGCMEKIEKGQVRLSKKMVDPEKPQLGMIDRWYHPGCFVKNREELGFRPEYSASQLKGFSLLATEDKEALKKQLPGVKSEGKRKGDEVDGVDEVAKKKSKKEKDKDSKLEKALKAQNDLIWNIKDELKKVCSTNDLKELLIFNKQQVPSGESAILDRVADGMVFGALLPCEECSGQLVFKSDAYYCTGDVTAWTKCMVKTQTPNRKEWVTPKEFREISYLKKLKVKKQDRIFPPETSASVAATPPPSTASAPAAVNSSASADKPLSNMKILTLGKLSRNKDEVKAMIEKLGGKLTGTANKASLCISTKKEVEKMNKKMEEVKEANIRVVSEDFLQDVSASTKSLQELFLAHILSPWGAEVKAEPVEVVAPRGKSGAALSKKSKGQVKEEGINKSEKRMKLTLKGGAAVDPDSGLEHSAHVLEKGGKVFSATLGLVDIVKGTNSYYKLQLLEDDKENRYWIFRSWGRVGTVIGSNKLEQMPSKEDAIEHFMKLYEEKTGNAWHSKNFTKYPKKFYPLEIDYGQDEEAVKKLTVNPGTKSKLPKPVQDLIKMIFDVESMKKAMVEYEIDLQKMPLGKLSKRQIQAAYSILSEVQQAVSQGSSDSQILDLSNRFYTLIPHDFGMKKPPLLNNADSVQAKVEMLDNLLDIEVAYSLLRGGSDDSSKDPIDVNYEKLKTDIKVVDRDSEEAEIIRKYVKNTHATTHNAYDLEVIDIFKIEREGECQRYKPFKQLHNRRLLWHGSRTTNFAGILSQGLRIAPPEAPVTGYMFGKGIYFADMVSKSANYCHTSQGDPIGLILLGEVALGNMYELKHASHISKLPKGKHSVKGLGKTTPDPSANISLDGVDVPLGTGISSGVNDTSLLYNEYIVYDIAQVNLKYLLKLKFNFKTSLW

CT26 [4] = assay: Antitumor activity against mouse CT26 cells implanted in immunodeficient Balb/c mouse assessed as inhibition of tumor growth at 25 mg/kg, ip qod measured after 10 days relative to control; assay type: functional; settings: CT26, 240 h, time 10 day, read-out: TGI
[5] = Antiproliferative activity against mouse AML12 cells measured after 6 days incubation by MTT assay; assay type: toxicity, cell-based
Cytochrome P450 2D6 = Cytochrome P450 2D6 (Homo sapiens, UniProt P10635); assay: Inhibition of CYP2D6 (unknown origin); assay type: ADME
Chain of Cytochrome P450 2D6 (P10635 whole entry): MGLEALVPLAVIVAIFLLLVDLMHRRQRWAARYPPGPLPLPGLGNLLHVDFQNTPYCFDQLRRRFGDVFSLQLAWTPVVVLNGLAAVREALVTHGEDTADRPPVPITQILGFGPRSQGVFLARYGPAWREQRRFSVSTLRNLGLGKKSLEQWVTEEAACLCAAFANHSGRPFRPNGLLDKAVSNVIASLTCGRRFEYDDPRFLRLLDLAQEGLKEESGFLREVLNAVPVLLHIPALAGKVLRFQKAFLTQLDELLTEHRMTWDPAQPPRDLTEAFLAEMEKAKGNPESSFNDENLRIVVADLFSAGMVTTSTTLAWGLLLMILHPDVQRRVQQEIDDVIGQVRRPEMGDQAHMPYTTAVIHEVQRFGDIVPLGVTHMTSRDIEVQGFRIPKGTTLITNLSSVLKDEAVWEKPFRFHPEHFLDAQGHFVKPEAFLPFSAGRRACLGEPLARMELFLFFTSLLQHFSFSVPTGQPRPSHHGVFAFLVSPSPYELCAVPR

[6] = Oral bioavailability in ICR mouse; assay type: ADME, organism-based; settings: in vivo
[7] = Clearance in ICR mouse; assay type: ADME; settings: in vivo
Cytochrome P450 2C9 = Cytochrome P450 2C9 (Homo sapiens, UniProt P11712); assay: Inhibition of CYP2C9 (unknown origin); assay type: ADME
Chain of Cytochrome P450 2C9 (P11712 whole entry): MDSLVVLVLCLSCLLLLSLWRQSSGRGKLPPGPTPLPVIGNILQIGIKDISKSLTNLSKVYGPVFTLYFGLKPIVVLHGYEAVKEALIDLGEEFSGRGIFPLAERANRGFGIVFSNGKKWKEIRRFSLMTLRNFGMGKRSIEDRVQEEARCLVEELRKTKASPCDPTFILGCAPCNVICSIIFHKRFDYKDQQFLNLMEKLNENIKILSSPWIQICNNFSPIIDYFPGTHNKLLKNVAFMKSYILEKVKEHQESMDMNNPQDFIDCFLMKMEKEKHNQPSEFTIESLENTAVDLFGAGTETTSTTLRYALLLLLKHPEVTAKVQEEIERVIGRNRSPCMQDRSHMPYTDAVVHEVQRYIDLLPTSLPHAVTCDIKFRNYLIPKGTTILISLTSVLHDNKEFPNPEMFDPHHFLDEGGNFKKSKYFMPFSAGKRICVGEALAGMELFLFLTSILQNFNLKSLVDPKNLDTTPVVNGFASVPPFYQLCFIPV

[8] = Permeability across basolateral to apical side in human Caco-2 cells; assay type: ADME, cell-based
[9] = Permeability across apical to basolateral side in human Caco-2 cells; assay type: ADME, cell-based
CYP3A4/5 = CYP3A4/5 (Homo sapiens, UniProt P08684+P20815); assay: Inhibition of CYP3A4/5 (unknown origin); assay type: ADME, protein assay
CT26 [10] = assay: Antitumor activity in immunocompetent mouse CT26 cell bearing mouse model assessed as tumor growth inhibition at 100 mg/kg, IG treated twice a day measured after 14 days relative to control; assay type: functional; settings: CT26, po, 336 h, time 14 day, read-out: TGI
CT26 [11] = assay: Antitumor activity in immunocompetent mouse CT26 cell bearing Balb/c mouse model assessed as induction of IFN-beta mRNA expression in tumor tissue at 100 mg/kg, IG treated twice a day measured after 14 days by quantitative real-time PCR analysis; assay type: functional, organism-based; settings: time 14.0 day

## Cc1cnc(N2CCN(C(=O)C(C)n3cc4cccc(C(N)=O)c4n3)CC2)nc1 (stereo not drawn)
[1]
  inhibition: 79.5%
[2]
  IC50: 0.062 µM

## CC(C(=O)N1CCN(c2ncc(C#N)cn2)CC1)n1cc2cccc(C(N)=O)c2n1 (stereo not drawn)
[1]
  inhibition: 71%

## NC(=O)c1cccc2cn(CCC(=O)N3CCN(c4ncc(C(F)(F)F)cn4)CC3)nc12
[1]
  inhibition: 33.9%

## NC(=O)c1cccc2cn(C(F)C(=O)N3CCN(c4ncc(C(F)(F)F)cn4)CC3)nc12 (stereo not drawn)
[1]
  inhibition: 63%
[2]
  IC50: 0.122 µM

## CC(C(=O)N1CCN(c2ncc(Br)cn2)CC1)n1cc2cccc(C(N)=O)c2n1 (stereo not drawn)
[1]
  inhibition: 85.6%
[2]
  IC50: 0.0223 µM

## CC(C(=O)N1CCN(c2ncc(F)cn2)CC1)n1cc2cccc(C(N)=O)c2n1 (stereo not drawn)
[1]
  inhibition: 64.5%

## NC(=O)c1cccc2cn(CC(=O)N3CCN(c4ccc5c(c4)OC(F)(F)O5)CC3)nc12
[1]
  inhibition: 17.5%

## NC(=O)c1cccc2cn(CC(=O)N3CCN(c4ncc(C(F)(F)F)cn4)CC3)nc12
[1]
  inhibition: 89%
[2]
  IC50: 0.046 µM
[3]
  IC50: > 1.3 µM

## O=c1[nH]cc(F)c(=O)[nH]1 [FLUOROURACIL]
CT26 [4]
  inhibition in vivo at 25 mg/kg: 65%

## COc1cnc(N2CCN(C(=O)C(C)n3cc4cccc(C(N)=O)c4n3)CC2)nc1 (stereo not drawn)
[1]
  inhibition: 65.5%

## C[C@@H](COCCC(=O)N1CCN(c2ncc(C(F)(F)F)cn2)CC1)Nc1cn[nH]c(=O)c1C(F)(F)F [ATAMPARIB]
[5]
  IC50 at 6 days: > 50 µM
Cytochrome P450 2D6
  IC50: > 30 µM
[6]
  bioavailability: 25.7%
[7]
  clearance: 67 mL/min/kg
Cytochrome P450 2C9
  IC50: > 30 µM
[8]
  Papp B→A: 24 ×10⁻⁶ cm/s
[9]
  Papp A→B: 4.1 ×10⁻⁶ cm/s
CYP3A4/5
  IC50: > 30 µM
CT26 [10]
  inhibition in vivo at 100 mg/kg: 4%
CT26 [11]
  Activity: inactive

## CC(C(=O)N1CCN(c2ncccn2)CC1)n1cc2cccc(C(N)=O)c2n1 (stereo not drawn)
[1]
  inhibition: 19.7%

## CC(C(=O)N1CCN(c2ccc(C(F)(F)F)cn2)CC1)n1cc2cccc(C(N)=O)c2n1 (stereo not drawn)
[1]
  inhibition: 91.2%
[2]
  IC50: 0.02 µM

## CC(C(=O)N1CCN(c2ccc3c(c2)OC(F)(F)O3)CC1)n1cc2cccc(C(N)=O)c2n1 (stereo not drawn)
[1]
  inhibition: 13%

## CCC(C(=O)N1CCN(c2ncc(C(F)(F)F)cn2)CC1)n1cc2cccc(C(N)=O)c2n1 (stereo not drawn)
[1]
  inhibition: 63%

## NC(=O)c1cccc2cn(CC(=O)N3CCN(c4ccc(C(F)(F)F)cn4)CC3)nc12
[1]
  inhibition: 68.7%
[3]
  IC50: > 1.3 µM

## CC(C(=O)N1CCN(c2ncc(S(C)(=O)=O)cn2)CC1)n1cc2cccc(C(N)=O)c2n1 (stereo not drawn)
[1]
  inhibition: 25.6%
